Experiments:
[1] = system: Lec 13.6 A cells (CHO cells deficient in GDP-mannose 4,6, dehydratase) expressing CTLA4Ig; experiment: Degree of core fucosylation of glycans on secreted CTLA4Ig (PNGase F, MALDI mass spectrometry); type: cell-based, Chinese hamster; conditions: CTLA4Ig from Lec 13.6A cells
Description: (§1) The levels of GDP-fucose levels and the degree of protein fucosylation on glycoproteins were analyzed for three different CHO cell lines expressing a representative secreted protein product (CTLA4Ig): CHO cells that are deficient in the enzyme GDP-mannose 4,6, dehydratase (Lec 13.6 A); CHO cells that have lowered levels of GDP-fucose (Lec 2); and wild-type CHO cells. […] Cells were harvested, and snap frozen, while culture supernatant was harvested and CTLA4Ig harvested by protein A purification for subsequent analysis. Cells were then subjected to nucleotide sugar extraction using standard methods. In short with chloroform:methanol:water (2:4:1), the pellets discarded and the resulting extraction dried down. The dried material was subsequently resuspended in 500 ul of 10% butanol in water and then extracted with 1 ml of 90% butanol in water. […] For quantification, sugar-nucletides were resolved with RP chromatography.
(§2) Protein products were isolated from culture supernatant by protein A affinity, and subjected to PNGase F treatment to remove glycans. The resulting glycans were isolated by PGC chromatography and subsequently analyzed by MALDI mass spectrometry. The % fucosylation was determined by determining the ratio of the glycans with or without core fucosylation. GDP-fucose levels are indicated in peak area as detected by UV.

[2] = system: Lec 13.6 A cells (CHO cells deficient in GDP-mannose 4,6, dehydratase) expressing CTLA4Ig; experiment: GDP-fucose levels in CHO cells (nucleotide sugar extraction, RP chromatography, UV); type: cell-based, Chinese hamster; conditions: relative to wild-type CHO = 100
Description: as §1, §2

[3] = 0.01 mM exogenous fucose in culture media
[4] = 1 mM exogenous fucose in culture media

**Q.** Which “% Fucosylated Glycans” value [1, 3] does the source give for `C[C@H](O)[C@@H](O)[C@@H](O)[C@H](O)C=O` [fucose] here?
**A.** Its value is 45%.

**Q.** What about the “% Fucosylated Glycans” value [1, 4] of the same compound?
**A.** The value was 100%.

**Q.** And the “% of Parental GDP-fucose” value [2, 3]?
**A.** The value was 62.5%.

**Q.** And the “% of Parental GDP-fucose” value [2, 4]?
**A.** Its value is 270%.
